{
  "source": "patent US12569534B2",
  "about": "“Therapeutic nanoparticles by coacervate complexation and their use for treating bacteria” (priority 2018, dated 2026)",
  "test_system": "E. Coli ATCC 25922",
  "experiment": "MIC and MBC of different treatments, Example 3",
  "format": "cell-based",
  "description": "Reference bacterial stains were purchased from ATCC. Clinical isolates of carbapenem-resistant bacteria were obtained from National Health Research Institutes (NHRI) and Tri-Service General Hospital (TSGH). MIC is defined as the lowest concentration of antibiotics required to inhibit the growth of bacteria. MBC is defined as the lowest concentration of antibiotics required to eradicate microorganisms. The MICs of CS and the CS NPs were determined using a broth microdilution method. Bacterial suspensions were adjusted to a turbidity of McFarland 0.5±0.05 and cultured overnight with different concentrations of CS or CS NPs. A control group without antimicrobial treatment was prepared as a reference. Following overnight incubation, solution turbidity was determined by visual inspection. Culture wells with no observable turbidity were further sub-cultured for MBC evaluation. Solutions from the clear wells were deposited onto an agar plate and cultured overnight to determine the MBCs.",
  "note": "{Cy5} = Cy5 fluorescent dye; d = 2'-deoxy (DNA); m = 2'-O-methyl",
  "data": [
    {"substance": "ASOftsZ: antisense oligonucleotide of ftsZ DNA fragment; Cy5-mCmCmAmU-TG-GTT-CAA-A-mCmAmUmA, m_: 2′ O-methyl bases (antisense CCAUTGGTTCAAACAUA; sugars from the 5' end m4 d9 m4, 5' {Cy5}, backbone and methylation of C not given here)", "values": [
      {"measurement": "MBC", "value": ">2", "unit": "µg/mL"},
      {"measurement": "MIC", "value": ">2", "unit": "µg/mL"}
    ]}
  ]
}
